The values below come from ChEMBL document CHEMBL1201862, “PubChem BioAssay data set” (2004).

Test [1] addresses T1, Aminopeptidase N (Plasmodium falciparum FcB1/Columbia, UniProt O96935).
T1 sequence (O96935 whole entry): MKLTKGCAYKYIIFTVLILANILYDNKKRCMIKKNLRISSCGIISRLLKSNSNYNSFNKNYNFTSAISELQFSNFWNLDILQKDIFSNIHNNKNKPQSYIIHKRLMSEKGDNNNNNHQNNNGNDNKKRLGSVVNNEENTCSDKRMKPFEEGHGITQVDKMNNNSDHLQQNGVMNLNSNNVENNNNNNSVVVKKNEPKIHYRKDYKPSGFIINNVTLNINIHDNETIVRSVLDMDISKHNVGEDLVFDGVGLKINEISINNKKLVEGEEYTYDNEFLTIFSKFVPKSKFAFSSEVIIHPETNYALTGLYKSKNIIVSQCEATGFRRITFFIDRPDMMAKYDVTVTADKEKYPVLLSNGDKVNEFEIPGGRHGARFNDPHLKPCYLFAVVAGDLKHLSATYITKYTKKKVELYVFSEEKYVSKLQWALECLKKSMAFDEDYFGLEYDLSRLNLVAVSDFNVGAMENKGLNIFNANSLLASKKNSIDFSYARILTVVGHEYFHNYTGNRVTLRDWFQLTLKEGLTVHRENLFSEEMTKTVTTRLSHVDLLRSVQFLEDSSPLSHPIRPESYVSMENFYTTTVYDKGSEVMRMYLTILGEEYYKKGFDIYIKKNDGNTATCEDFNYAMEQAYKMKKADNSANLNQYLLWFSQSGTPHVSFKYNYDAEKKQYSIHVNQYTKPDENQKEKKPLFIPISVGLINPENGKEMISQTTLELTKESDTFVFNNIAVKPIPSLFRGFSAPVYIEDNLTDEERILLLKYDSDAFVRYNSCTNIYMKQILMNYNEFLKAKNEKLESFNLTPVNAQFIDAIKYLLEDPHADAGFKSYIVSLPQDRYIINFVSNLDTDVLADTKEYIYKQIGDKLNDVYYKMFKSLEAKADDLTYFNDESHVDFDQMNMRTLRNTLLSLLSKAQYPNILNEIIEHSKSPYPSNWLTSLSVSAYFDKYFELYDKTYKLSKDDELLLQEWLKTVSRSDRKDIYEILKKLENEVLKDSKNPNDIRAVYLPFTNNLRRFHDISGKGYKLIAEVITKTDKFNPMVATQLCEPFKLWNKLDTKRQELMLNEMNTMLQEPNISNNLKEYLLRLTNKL
Briefly: P. falciparum M1AAP inhibitors, biochemical, fluorogenic H-Leu-NHMec substrate, 1536-well (AID 1445). More on the design: species or system Plasmodium falciparum 3D7, 3D7.

The target in test [2] is Bifunctional protein GlmU (Mycobacterium tuberculosis, UniProt P9WMN3). Briefly: Inhibitors of Mycobacterial Glucosamine-1-phosphate acetyl transferase (GlmU). Secondary screen. Details: species or system Mycobacterium tuberculosis H37Rv.
Sequence of Bifunctional protein GlmU (P9WMN3 whole entry): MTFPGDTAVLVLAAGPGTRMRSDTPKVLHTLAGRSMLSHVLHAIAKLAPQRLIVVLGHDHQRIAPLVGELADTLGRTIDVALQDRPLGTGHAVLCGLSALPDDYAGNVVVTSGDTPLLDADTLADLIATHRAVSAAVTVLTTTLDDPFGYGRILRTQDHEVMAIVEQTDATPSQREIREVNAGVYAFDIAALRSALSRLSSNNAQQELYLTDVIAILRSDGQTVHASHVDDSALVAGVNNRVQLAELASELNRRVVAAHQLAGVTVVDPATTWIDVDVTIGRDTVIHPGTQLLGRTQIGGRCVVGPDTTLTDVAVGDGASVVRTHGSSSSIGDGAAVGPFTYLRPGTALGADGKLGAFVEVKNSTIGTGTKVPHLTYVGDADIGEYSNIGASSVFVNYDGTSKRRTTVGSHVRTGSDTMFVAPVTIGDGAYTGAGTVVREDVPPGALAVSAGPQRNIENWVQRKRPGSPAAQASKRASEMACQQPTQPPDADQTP
In test [3] the target is Induced myeloid leukemia cell differentiation protein Mcl-1 (Homo sapiens, UniProt Q07820). In kind it is functional.
Sequence of Induced myeloid leukemia cell differentiation protein Mcl-1 (Q07820 whole entry): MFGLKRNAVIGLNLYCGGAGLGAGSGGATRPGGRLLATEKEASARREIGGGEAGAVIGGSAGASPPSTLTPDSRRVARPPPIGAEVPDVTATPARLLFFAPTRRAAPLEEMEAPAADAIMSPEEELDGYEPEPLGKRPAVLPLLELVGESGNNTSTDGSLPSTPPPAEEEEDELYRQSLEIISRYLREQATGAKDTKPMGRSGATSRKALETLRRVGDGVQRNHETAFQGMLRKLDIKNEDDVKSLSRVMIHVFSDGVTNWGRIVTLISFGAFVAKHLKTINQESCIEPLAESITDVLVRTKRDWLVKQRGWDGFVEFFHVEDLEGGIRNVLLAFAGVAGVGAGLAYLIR
Test [4] deals with DNA (cytosine-5)-methyltransferase 1 (Homo sapiens, UniProt P26358). Briefly: DNMT1 methyltransferase inhibitors, confirmation, biochemical, fluorescent molecular beacon (AID 602386). In kind it is functional.
Sequence of DNA (cytosine-5)-methyltransferase 1 (P26358 whole entry): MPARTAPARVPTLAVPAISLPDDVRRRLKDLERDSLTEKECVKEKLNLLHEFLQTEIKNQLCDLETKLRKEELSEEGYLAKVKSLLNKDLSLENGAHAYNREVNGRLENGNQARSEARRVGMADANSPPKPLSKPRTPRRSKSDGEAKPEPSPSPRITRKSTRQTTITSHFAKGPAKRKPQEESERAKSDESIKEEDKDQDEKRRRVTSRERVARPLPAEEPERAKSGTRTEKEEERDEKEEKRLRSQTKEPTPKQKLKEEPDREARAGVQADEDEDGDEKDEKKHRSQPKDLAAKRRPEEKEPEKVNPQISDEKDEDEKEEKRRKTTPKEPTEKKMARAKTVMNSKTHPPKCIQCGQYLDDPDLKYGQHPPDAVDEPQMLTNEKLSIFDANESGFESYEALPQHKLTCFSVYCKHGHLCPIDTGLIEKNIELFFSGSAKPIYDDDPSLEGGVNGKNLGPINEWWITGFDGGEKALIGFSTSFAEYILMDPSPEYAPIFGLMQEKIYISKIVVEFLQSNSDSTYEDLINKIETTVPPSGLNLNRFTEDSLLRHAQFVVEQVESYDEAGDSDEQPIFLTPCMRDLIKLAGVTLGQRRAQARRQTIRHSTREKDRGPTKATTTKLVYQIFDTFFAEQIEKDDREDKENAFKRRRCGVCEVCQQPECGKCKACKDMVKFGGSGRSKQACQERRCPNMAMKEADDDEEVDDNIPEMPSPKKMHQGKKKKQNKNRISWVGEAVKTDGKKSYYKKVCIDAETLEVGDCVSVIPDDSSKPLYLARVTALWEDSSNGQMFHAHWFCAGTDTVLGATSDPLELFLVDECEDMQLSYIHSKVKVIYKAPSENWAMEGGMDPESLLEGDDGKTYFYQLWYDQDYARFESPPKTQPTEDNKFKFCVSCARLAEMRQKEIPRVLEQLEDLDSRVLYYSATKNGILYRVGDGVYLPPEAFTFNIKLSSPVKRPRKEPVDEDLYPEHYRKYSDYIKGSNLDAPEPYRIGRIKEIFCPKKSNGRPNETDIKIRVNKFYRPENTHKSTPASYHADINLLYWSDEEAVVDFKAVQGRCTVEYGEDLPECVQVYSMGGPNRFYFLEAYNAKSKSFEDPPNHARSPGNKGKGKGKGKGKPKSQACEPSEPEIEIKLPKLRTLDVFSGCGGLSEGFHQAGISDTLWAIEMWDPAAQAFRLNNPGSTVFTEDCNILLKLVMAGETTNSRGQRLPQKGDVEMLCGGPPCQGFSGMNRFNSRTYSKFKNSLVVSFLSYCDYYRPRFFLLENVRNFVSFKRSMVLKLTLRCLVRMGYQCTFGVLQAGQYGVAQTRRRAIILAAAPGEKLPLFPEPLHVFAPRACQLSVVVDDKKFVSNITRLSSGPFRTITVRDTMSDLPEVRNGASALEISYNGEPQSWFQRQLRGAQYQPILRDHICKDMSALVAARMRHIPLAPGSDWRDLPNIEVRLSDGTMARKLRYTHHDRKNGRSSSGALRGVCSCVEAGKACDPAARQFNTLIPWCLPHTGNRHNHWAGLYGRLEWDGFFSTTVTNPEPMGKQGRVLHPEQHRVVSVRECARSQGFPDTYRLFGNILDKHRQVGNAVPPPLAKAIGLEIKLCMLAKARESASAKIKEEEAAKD
The target of test [5] is 26S proteasome non-ATPase regulatory subunit 14 (Homo sapiens, UniProt O00487). Briefly: inhibition of proteasome subunit RPN11 – biochemical, fluorescence polarization, uHTS hits, confirmation (AID 602368). In kind it is functional. A general note: Fluorescence polarisation rises when a labelled molecule tumbles more slowly, as on binding a larger partner.
In test [6] the target is 72 kDa type IV collagenase (Homo sapiens, UniProt P08253). Briefly: Dose Response validation of uHTS RPN11 inhibitor hits using a MMP-2 Fluorescence assay. It is filed as functional.
Sequence of 72 kDa type IV collagenase (P08253 whole entry): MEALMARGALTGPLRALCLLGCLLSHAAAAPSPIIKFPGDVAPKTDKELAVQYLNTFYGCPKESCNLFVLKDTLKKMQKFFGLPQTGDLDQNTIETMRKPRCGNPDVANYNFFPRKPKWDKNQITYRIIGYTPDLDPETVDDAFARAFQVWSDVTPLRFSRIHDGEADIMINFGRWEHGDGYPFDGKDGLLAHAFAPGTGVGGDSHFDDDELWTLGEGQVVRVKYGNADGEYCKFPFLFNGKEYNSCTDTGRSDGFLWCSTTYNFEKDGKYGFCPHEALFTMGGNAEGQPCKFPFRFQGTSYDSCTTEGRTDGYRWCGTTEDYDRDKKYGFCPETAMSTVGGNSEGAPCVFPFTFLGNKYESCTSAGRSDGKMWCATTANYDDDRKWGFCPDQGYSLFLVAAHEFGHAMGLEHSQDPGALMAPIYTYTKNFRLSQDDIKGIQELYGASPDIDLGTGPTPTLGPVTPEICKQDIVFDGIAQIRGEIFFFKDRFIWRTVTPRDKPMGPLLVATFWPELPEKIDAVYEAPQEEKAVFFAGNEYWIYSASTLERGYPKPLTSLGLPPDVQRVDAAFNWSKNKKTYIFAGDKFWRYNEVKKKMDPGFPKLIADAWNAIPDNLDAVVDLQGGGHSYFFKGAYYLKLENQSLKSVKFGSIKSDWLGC
Test [7] deals with Prothrombin (Bos taurus, UniProt P00735). Briefly: thrombin inhibition, dose response, biochemical, fluorescence polarization, uHTS hits (AID 602369). It is filed as functional.
In test [8] the target is T2, Rac GTPase-activating protein 1 (Homo sapiens, UniProt Q9H0H5).
T2 sequence (Q9H0H5 whole entry): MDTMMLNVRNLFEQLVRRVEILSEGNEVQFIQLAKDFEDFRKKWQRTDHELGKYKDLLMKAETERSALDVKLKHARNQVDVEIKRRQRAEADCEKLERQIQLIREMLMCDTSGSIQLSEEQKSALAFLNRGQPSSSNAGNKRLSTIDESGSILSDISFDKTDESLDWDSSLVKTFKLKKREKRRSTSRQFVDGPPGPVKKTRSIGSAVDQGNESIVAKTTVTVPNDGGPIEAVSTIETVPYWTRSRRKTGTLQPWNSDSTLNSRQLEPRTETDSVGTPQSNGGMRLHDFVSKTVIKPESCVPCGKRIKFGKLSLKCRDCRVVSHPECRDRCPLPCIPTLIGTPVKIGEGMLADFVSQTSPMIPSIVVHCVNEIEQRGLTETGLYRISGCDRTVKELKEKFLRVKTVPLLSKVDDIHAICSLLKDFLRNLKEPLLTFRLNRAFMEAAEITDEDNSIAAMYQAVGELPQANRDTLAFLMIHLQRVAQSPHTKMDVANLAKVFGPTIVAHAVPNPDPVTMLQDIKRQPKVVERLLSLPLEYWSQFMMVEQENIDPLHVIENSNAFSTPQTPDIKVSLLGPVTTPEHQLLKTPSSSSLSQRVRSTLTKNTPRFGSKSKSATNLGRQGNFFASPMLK
Briefly: MgcRacGAP GTPase-activating activity inhibitors, confirmation, biochemical, ADP Hunter fluorescence, primary and confirmatory (AID 624330). In kind it is functional.

For test [9], the target named is T3, Histone-lysine N-methyltransferase NSD2 (Homo sapiens, UniProt O96028).
T3 sequence (O96028 whole entry): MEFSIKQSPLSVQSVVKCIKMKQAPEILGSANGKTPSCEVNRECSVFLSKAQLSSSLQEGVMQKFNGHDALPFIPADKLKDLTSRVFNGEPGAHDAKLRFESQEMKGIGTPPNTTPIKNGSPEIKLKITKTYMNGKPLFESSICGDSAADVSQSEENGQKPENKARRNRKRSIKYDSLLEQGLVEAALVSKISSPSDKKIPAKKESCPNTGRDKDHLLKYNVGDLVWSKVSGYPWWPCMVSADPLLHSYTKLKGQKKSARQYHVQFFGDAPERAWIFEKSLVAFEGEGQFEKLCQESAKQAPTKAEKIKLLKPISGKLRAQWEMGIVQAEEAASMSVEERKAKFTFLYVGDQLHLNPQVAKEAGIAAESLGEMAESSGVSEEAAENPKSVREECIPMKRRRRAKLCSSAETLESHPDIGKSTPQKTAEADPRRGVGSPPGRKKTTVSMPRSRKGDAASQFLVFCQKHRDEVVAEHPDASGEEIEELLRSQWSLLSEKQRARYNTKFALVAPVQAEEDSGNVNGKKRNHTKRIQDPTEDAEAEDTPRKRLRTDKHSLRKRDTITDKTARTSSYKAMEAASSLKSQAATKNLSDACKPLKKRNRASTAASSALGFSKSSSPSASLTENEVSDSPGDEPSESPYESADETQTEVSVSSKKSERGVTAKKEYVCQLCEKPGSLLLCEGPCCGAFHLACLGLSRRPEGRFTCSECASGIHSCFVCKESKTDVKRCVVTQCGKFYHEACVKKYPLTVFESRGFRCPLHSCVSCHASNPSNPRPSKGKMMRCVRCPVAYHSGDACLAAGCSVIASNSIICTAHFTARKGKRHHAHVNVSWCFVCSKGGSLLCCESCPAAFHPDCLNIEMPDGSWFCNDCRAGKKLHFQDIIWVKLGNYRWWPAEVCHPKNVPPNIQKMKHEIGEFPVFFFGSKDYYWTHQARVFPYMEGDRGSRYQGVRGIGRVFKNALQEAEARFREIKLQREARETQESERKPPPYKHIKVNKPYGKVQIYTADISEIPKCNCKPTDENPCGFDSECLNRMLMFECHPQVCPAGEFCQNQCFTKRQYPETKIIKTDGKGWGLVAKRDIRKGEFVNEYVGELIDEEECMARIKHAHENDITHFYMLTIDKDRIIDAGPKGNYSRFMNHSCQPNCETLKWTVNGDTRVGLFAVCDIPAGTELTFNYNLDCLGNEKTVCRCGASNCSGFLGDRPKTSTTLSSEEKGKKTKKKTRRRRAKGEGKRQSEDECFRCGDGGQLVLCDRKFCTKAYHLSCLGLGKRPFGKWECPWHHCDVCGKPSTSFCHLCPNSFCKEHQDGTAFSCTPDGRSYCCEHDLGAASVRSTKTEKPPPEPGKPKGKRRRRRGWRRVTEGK
It is filed as biochemical.

Test [10] addresses Signal transducer and activator of transcription 1-alpha/beta (Homo sapiens, UniProt P42224). Briefly: STAT1 signalling inhibitors, dose response, cell-based, NIH 3T3, luciferase reporter (AID 1396). In kind it is functional. (In a reporter assay the amount or activity of a reporter protein is the signal.)
Test [11] concerns the target RNA-editing ligase 1, mitochondrial (Trypanosoma brucei brucei, UniProt P86926). Briefly: TbREL1 ligase inhibitors, dose response, biochemical, fluorescence, Trypanosoma brucei (AID 1117295). It is filed as functional.
Test [12] can be described thus: growth suppression of PTEN-null colon cells, dose response, cell-based, HCT116 PTEN knockout (AID 1047).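 Note: HCT116 colon tumor cells with PTEN knocked out; cells exposed to compound for 60 hours before readout; potency for loss of cell viability measured by luminescence.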 In kind it is functional.
A short description of test [13]: growth suppression of beta-catenin-knockout colon cells, dose response, cell-based, HCT116, human colon tumor (AID 1045).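 Note: HCT116 colon tumor cells with beta catenin knocked out; cells exposed to compound for 60 hours.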 It is filed as functional.
A short description of test [14]: enhancers of respiration in Yfh1-depleted yeast, dose response, Friedreich's ataxia, plus single-dose screen (AID 1465).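 Note: yeast depleted of Yfh1p frataxin homolog grown on glycerol needing respiration; WST-1 tetrazolium dye reduction as measure of cellular dehydrogenase metabolic activity.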 It is filed as functional.
Test [15] deals with Nonstructural protein 1 (Influenza A virus, UniProt Q194T2). It is filed as functional, Influenza A virus (A/California/07/2009(H1N1)).
Sequence of Nonstructural protein 1 (Q194T2 whole entry): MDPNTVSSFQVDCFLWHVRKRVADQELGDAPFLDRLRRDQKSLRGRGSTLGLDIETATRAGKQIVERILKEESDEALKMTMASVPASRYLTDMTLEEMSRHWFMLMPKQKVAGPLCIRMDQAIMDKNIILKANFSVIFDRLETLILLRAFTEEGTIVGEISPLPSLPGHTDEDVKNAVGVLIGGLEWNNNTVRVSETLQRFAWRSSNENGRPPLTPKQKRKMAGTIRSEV
Test [16] can be described thus: HeLa cell cytotoxicity, dose response, cytotoxicity control for MgcRacGAP inhibitor project (AID 624300). In kind it is functional.
The nature of test [17]: THP-1 cell cytotoxicity, dose response, cytotoxicity control for Vif-APOBEC3G degradation inhibitor project, THP-1 cells (AID 1117359). In kind it is functional. The note with it: Human immunodeficiency virus 1, THP-1.
The target of test [18] is Glutathione-S-transferase (Schistosoma japonicum, UniProt Q26513). Briefly: biotin-GST/anti-GST TR-FRET signal inhibitors, dose response, artefact control for Vif-APOBEC3G degradation inhibitor project, biochemical (AID 1117362). In kind it is functional.
Sequence of Glutathione-S-transferase (Q26513 whole entry): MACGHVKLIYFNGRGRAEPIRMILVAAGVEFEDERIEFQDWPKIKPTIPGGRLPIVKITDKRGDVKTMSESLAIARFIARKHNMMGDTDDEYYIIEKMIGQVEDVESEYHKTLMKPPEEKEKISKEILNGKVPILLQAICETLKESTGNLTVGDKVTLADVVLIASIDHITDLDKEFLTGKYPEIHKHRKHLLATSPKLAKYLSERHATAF
A short description of test [19]: P. falciparum 3D7-ScDHODH growth inhibitors, dose response, SYBR Green, dry powder samples (AID 1159570).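 Note: parasite growth measured after 72 hours of compound exposure.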 In kind it is functional, cell-based.
A short description of test [20]: HepG2 cell cytotoxicity, dose response, cytotoxicity control, plate reader, dry powder samples (AID 1159569).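 Note: inhibitor potency with signal falling toward the positive control level.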 It is filed as functional, cell-based.
The nature of test [21]: P. falciparum Dd2 growth inhibitors, dose response, SYBR Green, cherry-picked samples (AID 1159567). In kind it is functional, cell-based.
Test [22] is described as follows: P. falciparum Dd2 growth inhibitors, dose response, SYBR Green, dry powder samples (AID 1159566).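 Note: potency for growth inhibition with lower SYBR green DNA signal.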 In kind it is functional, cell-based.
A short description of test [23]: HepG2 cell cytotoxicity, dose response, cytotoxicity control, cherry-picked samples (AID 1159577). It is filed as functional, cell-based.
A short description of test [24]: Plasmodium falciparum Dd2 Sybr green parasite growth Measured in Cell-Based and Microorganism Combination System Using Plate Reader - 2153-01_Inhibitor_Dose_DryPowder_Activity_Set3. In kind it is functional.
Test [25] in a line: P. falciparum ATP4 D1247Y mutant growth inhibitors, dose response, NITD609-resistant line, SYBR Green, dry powder (AID 1159571).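 Note: parasites synchronized at ring stage by sorbitol before testing.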 In kind it is functional, cell-based.

Each structure is given as a SMILES string. Active and inactive are the calls of the source.

Sequence of RNA-editing ligase 1, mitochondrial (P86926 whole entry): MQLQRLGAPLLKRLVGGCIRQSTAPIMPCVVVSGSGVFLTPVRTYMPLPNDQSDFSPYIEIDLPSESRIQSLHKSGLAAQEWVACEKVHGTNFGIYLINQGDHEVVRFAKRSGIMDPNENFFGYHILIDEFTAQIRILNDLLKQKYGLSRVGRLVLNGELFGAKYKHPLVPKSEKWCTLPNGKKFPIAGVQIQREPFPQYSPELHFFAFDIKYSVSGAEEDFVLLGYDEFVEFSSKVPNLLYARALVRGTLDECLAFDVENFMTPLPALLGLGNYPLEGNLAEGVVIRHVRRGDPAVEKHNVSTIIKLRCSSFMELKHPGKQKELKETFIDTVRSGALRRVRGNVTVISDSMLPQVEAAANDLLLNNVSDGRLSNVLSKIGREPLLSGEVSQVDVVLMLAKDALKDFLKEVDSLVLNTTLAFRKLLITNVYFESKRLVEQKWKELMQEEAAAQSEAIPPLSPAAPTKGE
Sequence of Signal transducer and activator of transcription 1-alpha/beta (P42224 whole entry): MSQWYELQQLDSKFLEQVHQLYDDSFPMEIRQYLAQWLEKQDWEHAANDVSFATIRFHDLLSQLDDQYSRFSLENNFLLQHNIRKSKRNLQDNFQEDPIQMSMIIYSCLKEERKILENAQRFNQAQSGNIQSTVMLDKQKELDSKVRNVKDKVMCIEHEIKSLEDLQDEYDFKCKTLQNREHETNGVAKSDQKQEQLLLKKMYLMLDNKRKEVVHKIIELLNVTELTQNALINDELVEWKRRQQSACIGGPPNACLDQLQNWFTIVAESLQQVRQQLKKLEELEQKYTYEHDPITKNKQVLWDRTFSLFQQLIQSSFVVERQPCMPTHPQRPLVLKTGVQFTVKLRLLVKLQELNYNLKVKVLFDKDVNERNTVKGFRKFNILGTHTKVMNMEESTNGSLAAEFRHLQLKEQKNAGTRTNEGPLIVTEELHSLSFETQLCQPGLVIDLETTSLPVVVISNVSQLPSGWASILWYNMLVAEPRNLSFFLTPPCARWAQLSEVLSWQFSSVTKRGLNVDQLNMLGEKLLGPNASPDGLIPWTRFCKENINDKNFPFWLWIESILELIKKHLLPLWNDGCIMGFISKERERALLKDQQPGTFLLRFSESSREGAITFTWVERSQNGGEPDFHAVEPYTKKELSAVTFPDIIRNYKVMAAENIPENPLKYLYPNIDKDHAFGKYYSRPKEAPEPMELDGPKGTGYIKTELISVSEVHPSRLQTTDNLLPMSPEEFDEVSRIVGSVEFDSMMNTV

On to `CCS(=O)(=O)C1=NN2C(=N)/C(=C\c3ccc(SCc4ccco4)o3)C(=O)N=C2S1`, for which the IC50 (as a rule, the concentration at which inhibition is half-maximal) in test [1] is 24.2 µM (active); in test [2], 49.4 µM (active); in test [3], 3.96 µM (active); in test [4] it was 5.71 µM (active); in test [5] it was 12 µM (active); in test [6], 4.49 µM (active). The IC50 in test [7] is 28.5 µM (active); in [8], 132 µM (active). Also, in test [9], the half-maximal activity concentration (AC50) (commonly the concentration giving half of the maximal activity seen) was 7.62 µM (active).

With `CCOC(=O)C(/C=N/c1cc(C)nn1-c1ccccc1)=C(/O)OCC`, the half-inhibitory concentration (IC50) in [10] is 6.37 µM (active).

Turning to `COC(=O)C1=C(C)N(Cc2ccccc2C(F)(F)F)C(NCc2ccc(C(F)(F)F)cc2)=NC1c1ccccc1` (stereo unspecified), in test [11], the IC50 was > 96.6 µM (inactive).

Take `CN(C)c1ccc(/N=C/C=C2/N(C)c3ccccc3C2(C)C)cc1`: the figures for the concentration for a half-maximal effect (EC50) in test [12], in [13] and in test [14] were 39 µM (active), 39 µM (active) and > 100 µM (active), respectively. The IC50 was 16.1 µM (active) in test [15], 20.6 µM (active) in test [8] and 44.9 µM (active) in test [18]. Besides, the results for the CC50 in test [16] and in test [17] were 100 µM (active) and 17.5 µM (active), respectively.

Take `N#C[C@@H]1[C@H](c2ccc(C3=CCCCC3)cc2)[C@@H](CO)N1C(=O)NC1CCCC1`: the AC50 in [19] is 9.32 µM (active); in [20], 62.5 µM (active); in [21], 0.42 µM (active); in [22] it was 0.409 µM (active); in test [23], > 39 µM (inactive); in [24] it was 0.399 µM (active). Besides, the AC50 in [25] was 0.549 µM (active).
